In paper PMC12185579, “Impact of nephrotoxins and oxidants on survival and transport function of hiPSC-derived renal proximal tubular cells” (Archives of Toxicology, 2025):
Values joined by “and” are separate entries in the source; they are usually repeats but may differ in a detail not shown here. Equal values may be shown once. Read-outs that look alike come from different tables or passages of the source.

Experiments:
diffD3 [1] = test: TUNEL assay (apoptosis), diffD3; assay type: cell-based, human; conditions: diffD3, 24 h, IC20 and IC50 of the hiPSC
Method: (§1) To verify whether the substances analyzed induce apoptosis in the cells at different stages of differentiation, the TUNEL (terminal deoxynucleotidyl transferase-mediated dUTP-fluorescein nick-end labeling) assay was performed with cells grown on coverslips using the In-Situ Cell Death Detection Assay Kit (Roche GmbH, Grenzach-Wyhlen, Germany) according to the manufacturer’s instructions. The TUNEL assay visualizes free hydroxyl groups from fragmented DNA produced during apoptosis by labeling them with modified nucleotides through an enzymatic reaction (Gavrieli et al. [1992]). The coverslips were mounted with […]® Antifade Mounting Medium containing DAPI and sealed with nail polish. Fluorescence images were acquired using a fluorescence microscope (Olympus BX43 Upright Microscope, Olympus, Shinjuku, Tokyo, Japan) at 200-fold magnification and analyzed using ImageJ 1.51j8 (Schneider et al. [2012]). TUNEL-positive cells were referenced to the total number of cells and normalized to the untreated control.

[2] = test system: senescence-associated genes (β-GAL, IL-8, p21) in diffD3; test: RT-PCR senescence-associated genes, diffD3; assay type: cell-based, human; conditions: diffD3, 48 h after a 24 h treatment
Method: (§2) RNA was isolated using the RNeasy Mini Kit and RNase-free DNase Set (Qiagen, Venlo, The Netherlands) according to the manufacturer’s protocol as reported previously (Mboni-Johnston et al. [2023]). The primer sequences (Table S1, supplement) used for the mRNA expression analyses were designed with the help of NCBI (https://www.ncbi.nlm.nih.gov/nuccore/) and validated for specificity. At the end of the run, data were analyzed using CFX Manager software (v3.1, Bio-Rad Laboratories, Hercules, CA, USA) according to the manufacturer’s instructions. All samples were run with three technical replicates. The Cq values obtained for the genes of interest were first normalized to the mean Cq values obtained for the housekeeping genes ACT-β and RPL-32 and then for the control samples and expressed as a fold of this mean value. Changes in gene expression of ≤ 0.5- and ≥ twofold were considered biologically relevant.

hiPSC [3] = test: EdU incorporation (proliferation), hiPSC; assay type: cell-based, human; conditions: 24 h, hiPSC's IC20 and IC50
Method: (§3) To investigate the effect of toxins on the proliferation rate, the incorporation of EdU into S-phase cells was determined using the EdU-Click 488 assay according to the manufacturer’s protocol (Baseclick GmbH, Tutzing, Germany) as reported earlier (Mboni-Johnston et al. [2023]).

hiPSC [4] = test: TUNEL assay (apoptosis), hiPSC; assay type: cell-based, human; conditions: 24 h, IC20 and IC50 of the hiPSC
Method: as §1

diffD9 [5] = test: TUNEL assay (apoptosis), diffD9; assay type: cell-based, human; conditions: diffD9, 24 h, IC20 and IC50 of the hiPSC (CisPt: a higher concentration added)
Method: as §1

[6] = test system: stem cell markers, PTEC markers and transporters mRNA in diffD9; test: RT-PCR marker gene expression at diffD9 after treatment at diffD3; assay type: cell-based, human; conditions: for expression of megalin and cubilin: treated at diffD3, analyzed at diffD9
Method: as §2

diffD9 [7] = test: FITC-albumin uptake at diffD9 after treatment at diffD3; assay type: cell-based, human; conditions: treated 24 h at diffD3 with hiPSC's IC20 and IC50, analyzed at diffD9
Method: Cells were incubated with serum-free medium with/without 100 µg/ml FITC-albumin for 2 h at 37 °C, and uptake was stopped with ice-cold PBS. Cells were then harvested from Matrigel-coated wells with trypsin/EDTA, and albumin uptake was analyzed by flow cytometry [Becton Dickinson, Accuri™ C6 plus (Heidelberg, Germany)] as previously reported (Mboni-Johnston et al. [2023]).

diffD9 [8] = test system: diffD9; parameters: method as in Mboni-Johnston et al. [2023]; conditions: ref Mboni-Johnston et al. [2023]; cited from earlier work
[9] = test system: senescence-associated genes (β-GAL, IL-8, p21) in hiPSC; test: RT-PCR senescence-associated genes, hiPSC; assay type: cell-based, human; conditions: 48 h after a 24 h treatment
Method: as §2

hiPSC, diffD3 and diffD9 [10] = test: Cell viability of all differentiation stages, with and without pan-caspase inhibitor QVD; assay type: cell-based, human; conditions: 10 µM QVD
Method: (§4) After 24 h of exposure, the viability of the undifferentiated, differentiating, and differentiated cells was examined using the Alamar Blue Assay (O'Brien et al. [2000]), as described previously (Mboni-Johnston et al. [2023]). The relative viability of the cells in the corresponding untreated controls was set to 100%.

hiPSC [11] = test system: hiPSC; parameters: method as in Mboni-Johnston et al. [2023]; conditions: as given in Fig. 7 legend, value from former study ref Mboni-Johnston et al. [2023], cited from earlier work
diffD3 [12] = test: EdU incorporation (proliferation), diffD3; assay type: cell-based, human; conditions: diffD3, 24 h, hiPSC's IC20 and IC50
Method: as §3

hiPSC, diffD3 and diffD9 [13] = test system: hiPSC, diffD3 and diffD9; parameters: method as in Mboni-Johnston et al. [2023]; conditions: diffD3, differentiated PTELC ref Mboni-Johnston et al. [2023]; cited from earlier work
[14] = test system: senescence-associated genes (β-GAL, IL-8, p21) in diffD9; test: RT-PCR senescence-associated genes, diffD9; assay type: cell-based, human; conditions: diffD9, 48 h after a 24 h treatment
Method: as §2

diffD9 [15] = test: EdU incorporation (proliferation), diffD9; assay type: cell-based, human; conditions: diffD9, 24 h, hiPSC's IC20 and IC50
Method: as §3

[16] = test system: PTEC markers and transporters mRNA in diffD9; test: RT-PCR marker gene expression in diffD9 treated at diffD9; assay type: cell-based, human; conditions: diffD9, 24 h; for Aqp-1 mRNA expression: IC20 and IC50, vs untreated diffD9; for Pept-1 mRNA expression: IC50 (tBHQ not statistically significant); for Meg (megalin) mRNA expression: Mena IC20 and IC50, tBHQ IC50 (not statistically significant)
Method: as §2

[17] = test system: diffD9 (hiPSC differentiated into PTELC); test: Alamar Blue cell viability, differentiated cells day 9; assay type: cell-based, human; conditions: diffD9, 24 h treatment; for IC20: read-out: IC20 (inhibitory concentration where 20% of the cells are dead)
Method: as §4

hiPSC [18] = test: Alamar Blue cell viability, undifferentiated hiPSC; assay type: cell-based, human; conditions: for IC20 / IC50: Homo sapiens; for IC20: read-out: hiPSC's IC20
Method: as §4

[19] = test system: diffD3 (hiPSC differentiating into PTELC); test: Alamar Blue cell viability, differentiating cells day 3; assay type: cell-based, human; conditions: for IC50 of diffD3, fold lower than those of hiPSC and diffD9: Alamar Blue, 24 h; for IC50: Homo sapiens, diffD3, 24 h treatment
Method: as §4

diffD9 [20] = test: FITC-albumin uptake (flow cytometry) in diffD9 treated at diffD9; assay type: cell-based, human; conditions: diffD9, 24 h treatment (menadione: IC50)
Method: The effect of toxins on the transport function of hiPSC-derived PTELC was examined by adding fluorescently labeled bovine serum albumin (FITC-BSA) (Sigma-Aldrich, 10 mg/ml) to the culture medium. Cells were incubated with serum-free medium with/without 100 µg/ml FITC-albumin for 2 h at 37 °C, and uptake was stopped with ice-cold PBS. Cells were then harvested from Matrigel-coated wells with trypsin/EDTA, and albumin uptake was analyzed by flow cytometry [Becton Dickinson, Accuri™ C6 plus (Heidelberg, Germany)] as previously reported (Mboni-Johnston et al. [2023]).

[21] = test system: human liver cell line HepG2; parameters: method as in Chen and Cederbaum [1997]; conditions: HepG2, after 18 h of incubation ref Chen and Cederbaum [1997]; read-out: IC50 (cytotoxicity); cited from earlier work
mammary epithelial cells = test system: mammary epithelial cells; parameters: method as in Jin et al. [2016]; conditions: mammary epithelial cells ref Jin et al. [2016]; read-out: IC50 (cell viability); cited from earlier work
endothelial cells = test system: endothelial cells; parameters: method as in Karimi et al. [2019]; conditions: endothelial cells ref Karimi et al. [2019]; read-out: IC50 (cell viability); cited from earlier work
[22] = as given in Fig. 7 legend, concentration used to treat diffD3 for 24 h
[23] = as given in Fig. 7 legend, concentration used to treat diffD3 for 24 h, read-out: hiPSC's IC50
[24] = hiPSC, 24 h treatment, read-out: IC50 (cell viability, Alamar Blue)

SMILES	frequency of TUNEL-positive cells (diffD3 [1])	mRNA expression of senescence-associated genes (β-GAL, IL-8, p21) [2]	EdU incorporation (proliferation) vs untreated control (hiPSC [3])	albumin uptake (diffD9 [7])	EdU incorporation (proliferation) vs untreated control (diffD3 [12])	mRNA expression of senescence-associated genes (β-GAL, IL-8, p21) [14]	EdU incorporation (cells in S-phase) vs untreated control (diffD9 [15])	Aqp-1 mRNA expression [16]	Pept-1 mRNA expression [16]	Meg (megalin) mRNA expression [16]	IC50 ([17]; Homo sapiens, 24 h) [µM]	IC20 ([17]; Homo sapiens) [µM]	IC50 [17]	IC20 (hiPSC [18]; [22]) [µM]	IC50 (hiPSC [18]; [23]) [µM]	IC50 (hiPSC [18]; [24]) [µM]	expression of megalin and cubilin [6]	IC50 of diffD3, fold lower than those of hiPSC and diffD9 [19]	IC50 [19] [µM]	albumin transport (FITC-albumin uptake) (diffD9 [20])	also measured
N.N.[Cl][Pt][Cl] [CisPt, cisplatin]	increased in a dose-dependent manner	only p21 was significantly higher expressed in diffD3	inhibited the likely proliferation-associated EdU incorporation in hiPSC in a dose-dependent manner	strong effect	not affected	no extensive expression	not affected	–	–	–	–	–	–	–	–	–	–	–	–	–	frequency of TUNEL-positive cells (hiPSC [4]): increased in a dose-dependent manner; frequency of TUNEL-positive cells (diffD9 [5]): increased in a dose-dependent manner; long-term changes in marker transcripts ([6]; treated 24 h at diffD3 with iPSCs' IC20, analyzed at diffD9): all but two transcripts being significantly reduced; albumin uptake capacity of PTELC (diffD9 [8]): reduced the albumin uptake capacity; mRNA expression of senescence-associated genes (β-GAL, IL-8, p21) [9]: no extensive expression; cell viability under co-treatment with pan-caspase inhibitor QVD vs mono-treatment (hiPSC, diffD3 and diffD9 [10]): significant restoration of cell viability to almost control level; IC20 (hiPSC [11]; read-out: hiPSC's IC20): 0.3 µM; IC50 (hiPSC [11]; read-out: hiPSC's IC50): 1 µM; relative sensitivity of differentiation stages (hiPSC, diffD3 and diffD9 [13]): hiPSC and diffD3 were more sensitive to CisPt than differentiated PTELC
CC1=CC(=O)c2ccccc2C1=O [Mena, menadione]	significantly increased	–	no significant differences in EdU incorporation	no effect on albumin transport itself	inhibited proliferation	IL-8 levels significantly increased	no significant differences in EdU incorporation	significant and dose-dependent decrease	increased significantly	significant and dose-dependent decrease	17.6	11	17 µM	3	6	16.2	low but significant effect	about four	4.1	significant decrease	Nanog mRNA expression ([16]; IC20): significantly increased; CD13 mRNA expression ([16]; IC50): increased significantly; Pept-2 mRNA expression ([16]; IC50): reduced expression; IC50 ([17]; listed as Menadione): 18 µM; IC50 [21]: 18 to 19 µM
CC(C)(C)c1cc(O)ccc1O [tBHQ, tert-butylhydroquinone]	significantly increased	IL-8 levels significantly increased	no significant differences in EdU incorporation	–	inhibited proliferation	–	no significant differences in EdU incorporation	significant dose-dependent decrease	increased above twofold	increased above twofold	34.5	15	34 µM and 35 µM	4	8	18.5	neither showed a relevant effect	7- to 12	2.8	increased the transport	Cad-16 mRNA expression ([16]; IC50, statistically significant): increased above twofold; sensitivity of hiPSC compared to diffD9 (hiPSC [18]; Alamar Blue, 24 h): twice as sensitive; IC50 (mammary epithelial cells): 50 µM; IC50 (endothelial cells): 60 µM
